The subject of assay [1] is HIV-1 NL4-3 wild-type virus. Put plainly: Selection for resistance in CEMx174 culture with escalating inhibitor, start wild-type virus, Primer ID deep sequencing. The format is cell-based. As to the method:
. The selection experiments were performed under two separate starting conditions: first when the starting virus was generated from the NL4-3 clone (this clone closely approximates the clade B consensus for the protease amino acid sequence and will be referred to as ‘wild type’), then again when the starting virus was a mixture of 26 isogenic viruses each with a single mutation associated with drug resistance in the NL4-3 background. […]. For technical reasons, only five of the selections starting with the mixture of mutants reached an inhibitor concentration as high as 400 nM and are reported here (Figure 2—figure supplement 3).
Resistance mutations selected in the protease coding domain during the escalating selective pressure of increasing PI concentration were examined at various timepoints using a next-generation sequencing (NGS) protocol that included Primer ID with the MiSeq platform ([Zhou et al., 2015]). We first examined the sequence of the most abundant variant in each of the two selection schemes present at the highest inhibitor concentration reached (Figure 2A). For those selections that reached 5 μM, 8–14 mutations were present in the most abundant variant. Typically the next two most abundant variants in the population differed by a single amino acid, and on average the three most abundant variants in the 5 μM cultures accounted for 88% of the total viral population (Figure 2—source data 1). Evolution of resistance followed two pathways, one based on I50V and one based on I84V. In three cultures, V2wt, V5wt, and V2mut (which reached either 4 or 5 μM final drug concentration; V2wt indicates the virus pool selected with UMASS-2 starting with wild-type virus), these two mutations, I84V and I50V, became linked on the same genome (Figure 2A) showing they are not mutually exclusive; […].
(§1) An aliquot of 3 × 10^6 CEMx174 cells was incubated at 37°C for 2–3 hr with 250 µl of a virus stock generated from the HIV-1 infectious molecular clone pNL4-3. The culture volume was then brought to 10 ml with RPMI medium. […] After 48 hr and every 48 hr after, the cells were pelleted by centrifugation and 10 ml of fresh medium and inhibitors were added. When the culture had undergone extensive cytopathic effect (CPE) indicative of viral replication, the supernatant medium and the cells were harvested separately and stored at –80°C. The virus-containing supernatant was used to start the next round of infection, and after several rounds at the initial concentration, the inhibitor concentration was increased 1.5-fold at each subsequent round of virus passage.
We used the PID protocol to prepare MiSeq PID libraries with multiplexed primers. Viral RNA was extracted from plasma samples using the QIAamp viral RNA mini kit (QIAGEN, Hilden, Germany). Complementary DNA (cDNA) was synthesized using a cDNA primer mixture targeting protease (PR) with a block of random nucleotides in each cDNA primer serving as the PID, and SuperScript III RT (Thermo Fisher). After two rounds of bead purification of the cDNA, we amplified the cDNA using a mixture of a forward primer that targeted the upstream coding region, followed by a second round of PCR to incorporate the Illumina adaptor sequences. Gel-purified libraries were pooled and sequenced using the MiSeq 300 base paired-end sequencing protocol (Illumina). The sequencing covered the HIV-1 PR region (HXB2 2648-2914, 3001-3257).
We used the Illumina bcl2fastq pipeline for the initial processing and constructed template consensus sequences (TCSs) with TCS pipeline version 1.33 (https://github.com/SwanstromLab/PID) ([Zhou, 2019]). We then aligned TCSs to an HXB2 reference to remove sequences not at the targeted region or that had large deletions. We used the Entropy tool at LANL (https://www.hiv.lanl.gov/content/sequence/ENTROPY/entropy.html) to calculate entropy for each specimen. The sequencing data is available at NIH Sequencing Read Archive (SRA) under BioProject ID PRJNA853351.

The target in another assay is T1, wild-type NL4-3 protease (Human immunodeficiency virus type 1 group M subtype B, UniProt P12497, Q495K).
T1 construct: the gene encoding the desired HIV-1 protease was subcloned into the heat-inducible pXC35 expression vector; made in house
Put plainly: Ki assay (FRET enzyme inhibition), wild-type protease. The format is biochemical, HIV-1. To be noted: limit of detection 5 pM, read-out: Ki WT. The method, then: (§2) The highly mutated, resistant, protease variant genes were purchased on a pET11a plasmid with codon optimization for protein expression in Escherichia coli (Genewiz). A Q7K mutation was included to prevent autoproteolysis ([Rosé et al., 1993]). The expression, isolation, and purification of WT and mutant HIV-1 proteases used for enzymatic assays were carried out as previously described ([Henes et al., 2019]; [King et al., 2002]; [Özen et al., 2014]). Briefly, the gene encoding the desired HIV-1 protease was subcloned into the heat-inducible pXC35 expression vector (ATCC) and transformed into E. coli TAP-106 cells. Cells grown in 6 l of Terrific Broth were lysed with a cell disruptor twice, and the protein was purified from inclusion bodies ([Hui et al., 1993]). Inclusion bodies, isolated as a pellet after centrifugation, were dissolved in 50% acetic acid followed by another round of centrifugation at 19,000 rpm for 30 min to remove insoluble impurities. Size-exclusion chromatography was carried out on a 2.1 l Sephadex G-75 Superfine (Sigma Chemical) column equilibrated with 50% acetic acid to separate high molecular weight proteins from the desired protease. Pure fractions of HIV-1 protease were refolded using a tenfold dilution of refolding buffer (0.05 M sodium acetate at pH 5.5, 5% ethylene glycol, 10% glycerol, and 5 µM DTT). Folded protein was concentrated to 0.5–3 mg/ml and stored. The stored protease was used in KM and Ki assays.
(§3) Enzyme inhibition constants (Ki values) were determined as previously described ([Henes et al., 2019]; [Lockbaum et al., 2019]; [Matayoshi et al., 1990]; [Windsor and Raines, 2015]). Briefly, in a 96-well plate, inhibitors were serially diluted down from […] depending on protease resistance. All samples were incubated with 5 nM protein for 1 hr. A 10-amino acid substrate containing an optimized protease cleavage site ([Windsor and Raines, 2015]), purchased from Bachem, with an EDANS/DABCYL FRET pair was dissolved in 4% DMSO at 120 µM. Using a PerkinElmer Envision plate reader, 5 µl of the 120 µM substrate were added to the 96-well plate to a final concentration of 10 µM. […] Data was analyzed with Prism7.

In a further assay the target is T2, I84V mutant protease (Human immunodeficiency virus type 1 group M subtype B, UniProt P12497, I572V/Q495K).
T2 construct: the gene encoding the desired HIV-1 protease was subcloned into the heat-inducible pXC35 expression vector; made in house
Put plainly: Ki assay (FRET enzyme inhibition), I84V protease. The class given is biochemical, HIV-1. To be noted: I84V drug-resistant protease variant. As to the method:
as §2, §3

The next assay has as its system wild-type virus NL4-3. Put plainly: TZM infection assay (cell culture-based viral inhibition), wild-type virus. Details: species or system HIV-1. The conditions noted are these: Human immunodeficiency virus 1, NL43; wild-type NL4-3 virus; concentration at time of virus production reducing infectivity by 50%; TZM-bl readout. The method, then:
(§4) PI dilutions were prepared by taking 10 µM stocked and performing a fivefold serial dilution using RPMI media (final drug concentration is […]). One dilution of drug was added to each well of a 24-well plate and repeated so each virus would have a full set of dilutions. Viruses for the assay were made by seeding 3 × 10^6 CEM cells in a 24-well plate and incubating with 250 µl of virus at 37°C for 2–3 hr before bringing the culture to 10 ml with RPMI media. After 48 hr, the medium was changed and repeated every 48 hr after until the culture had undergone CPE. Infected CEM cells were collected and diluted so that 1 ml of cells could be plated in each well containing a unique drug dilution. Then 24 hr later the virus supernatant was collected from each well followed by filtering through a […] then placed in –80°C. Viruses were thawed and added to 96-well plates in triplicate. TZM-bl cells were collected and diluted to a concentration of 2 × 10^5 cells/ml, 100 µl were added on top of the pre-plated viruses. Plates were kept in 37°C, 5% CO2 in an incubator for 48 hr. After 48 hr, the cells in the plates were lysed by removing the medium, washing two times with 100 µl PBS, and then lysed with 1× lysis buffer (made from 5× Promega Firefly Lysis Buffer). Plates were frozen for at least 24 hr and then thawed for 2 hr before analyzing with Promega Firefly Luciferase Kit on a luminometer. Data was analyzed with Prism 7 to fit sigmoidal dose–response curves.

Assay [2] has as its target T3, I50V/A71V mutant protease (Human immunodeficiency virus type 1 group M subtype B, UniProt P12497, A559V/I538V/Q495K).
T3 construct: the gene encoding the desired HIV-1 protease was subcloned into the heat-inducible pXC35 expression vector; made in house
Put plainly: Ki assay (FRET enzyme inhibition), I50V/A71V protease. The format is biochemical, HIV-1. To be noted: I50V/A71V drug-resistant protease variant. The method, then: as §2, §3

The subject of assay [3] is virus pool selected to 5000 nM inhibitor. Put plainly: TZM infection assay, inhibitor-selected resistant virus pools. The conditions noted are these: Human immunodeficiency virus 1, read-out: EC50 Viral culture (5000 nM). The format is cell-based, HIV-1. The method, then:
In addition to the sequence of the terminally selected virus, we validated that selection occurred over the entire course of the selection protocol. […] In comparing the number of mutations present in cultures using the I84V versus the I50V pathway, we noted that on average there were more mutations in the I50V viruses at the intermediate drug concentration compared to the I84V viruses (100 nM, p=0.03), and this trend continued at the higher drug concentration.
as §1, §4

Data on four molecules can be found in PMC10065791 (eLife, 2023).

In the case of `CCC(CC)CN(C[C@@H](O)[C@H](Cc1ccccc1)NC(=O)O[C@H]1CO[C@H]2OCC[C@H]21)S(=O)(=O)c1ccc2ncsc2c1` [UMASS-10], the “Abundance of variant at the last time point” value (“Abundance of variant” below) in assay [1] (variant 10F/13V/33F/43T/46I/47V/50V/54L/71V/77I/82L/88S, passage 77, [PI] 5000 nM) was found to be 1.6%; in assay [1] (variant 10F/13V/33F/43T/46I/47V/50V/54L/71V/82L/87K/88S, passage 77, [PI] 5000 nM), 0.2%; in assay [1] (variant 10F/13V/33F/43T/46I/47V/50V/54L/71V/82L/88S, passage 77, [PI] 5000 nM), 91.2%. Also, the Ki (usually the dissociation constant of the complex between target and ligand, obtained from inhibition or displacement) at wild-type NL4-3 protease was below 0.005 nM; on I84V mutant protease it was 0.0143 ± 0.0093 nM; in assay [2] it was 0.0058 ± 0.0011 nM. The EC50 (commonly the concentration at which the effect is half-maximal) with wild-type virus NL4-3 was 4.1 ± 0.9 nM.

As to `CC[C@H](C)CN(C[C@@H](O)[C@H](Cc1ccccc1)NC(=O)O[C@H]1CO[C@H]2OCC[C@H]21)S(=O)(=O)c1ccc(OC)cc1` [UMASS-2], the “Abundance of variant” value in assay [1] (variant 10F/33F/46I/47V/50V/71V/82I/84V, passage 82, [PI] 5000 nM) stood at 37.5%; in assay [1] (variant 28S/32I/33F/46I/47V/50V/71V/82I/84V, passage 82, [PI] 5000 nM) it was 33.5%; in assay [1] (variant 33F/46I/47V/50V/71V/82I/84V, passage 82, [PI] 5000 nM), 4.2%. The Ki was below 0.005 nM on wild-type NL4-3 protease, below 0.005 nM on I84V mutant protease and 0.015 ± 0.0027 nM in assay [2]. This molecule also displayed an EC50 with wild-type virus NL4-3 of 2.4 ± 0.3 nM.

`CC(C)CN(C[C@@H](O)[C@H](Cc1ccccc1)NC(=O)O[C@H]1CO[C@H]2OCC[C@H]21)S(=O)(=O)c1ccc(N)cc1` [DRV, Darunavir, reference compound]: the “Abundance of variant” value in assay [1] (variant 10I/32I/41I/46I/47V/82I/84V/85V, passage 43, [PI] 1350 nM) is given as 10.3%; in assay [1] (variant 32I/41I/46I/47V/82I/84V/85V, passage 43, [PI] 1350 nM) it was 62.8%; in assay [1] (variant 32I/41I/46I/47V/82L/84V/85V, passage 43, [PI] 1350 nM), 10.1%. The EC50 in the assay with wild-type virus NL4-3 was 7.7 ± 1.6 nM; in assay [3] it was above 100000 nM.

Take `CCC(CC)CN(C[C@@H](O)[C@H](Cc1ccccc1)NC(=O)O[C@H]1CO[C@H]2OCC[C@H]21)S(=O)(=O)c1ccc(CO)cc1` [UMASS-8]: the “Abundance of variant” value amounted to 55.4% in assay [1] (variant 10F/12K/33F/46I/47V/50V/53L/54L/63P/71V/82I/85V, passage 67, [PI] 5000 nM); 0.1% in assay [1] (variant 10F/12K/33F/46I/47V/50V/53L/54L/63P/71V/82I/85V/87K, passage 67, [PI] 5000 nM); 41.9% in assay [1] (variant 10F/33F/46I/47V/50V/53L/54L/63P/71V/82I/85V, passage 67, [PI] 5000 nM). In addition, the Ki on wild-type NL4-3 protease was below 0.005 nM; on I84V mutant protease it was below 0.005 nM; in assay [2] it was 0.0554 ± 0.004 nM. The same molecule came in with an EC50 in the assay with wild-type virus NL4-3 of 4.2 ± 0.9 nM.
